# Experimental data from the NIST ThermoML archive (doi:10.1016/j.jct.2018.08.012).
# Numbers after ± are expanded uncertainties.
# Details: for mass density: 298 K, 101.33 kPa, X-ray diffraction; for Triple point temperature: DSC
SMILES,mass density (Crystal) [kg/m3],mass density (Crystal 3) [kg/m3],"Normal melting temperature (Crystal 1, DTA) [°C]",Triple point temperature (Crystal 2) [K],Triple point temperature (Crystal 3) [K]
[Ag+].[Ag+].[Ag+].[Ag+].[I-].[I-].[I-].[I-].[I-].[Rb+] [rubidium silver iodide (Ag4RbI5)],5389 ± 2,–,–,–,–
[Ag+].[Ag+].[Te-2] [silver(I) telluride],–,8321 ± 2,962 ± 4,1075 ± 4,418 ± 4
